24 substances from patent publication US20140228543A1, “MODIFIED AND DERIVATIZED ß-GLUCAN COMPOUNDS, COMPOSITIONS, AND METHODS” (Biothera, Inc., priority 2011, published 2014) can be followed below.

The subject of experiment [1] is human neutrophils. In words: iC3b deposition on neutrophils (flow cytometry). The format is cell-based. As to conditions: 200 μg/mL hexose concentration, 2 hr, 37° C., 10% serum. Here is the method:
This ability was evaluated by comparing the levels of iC3b complement fragment detected on human neutrophils with the derivative versus parent β-glucan-bound.
Enriched neutrophils were resuspended at 1×10^6 cells/mL in RPMI 1640 supplemented with 10% serum. The parent or the derivatized glucans at 200, μg/mL hexose concentration were added to neutrophils and incubated in a 37° C., 5% C02 humidified incubator for 2 hr. After incubation, cells were washed twice with FACS buffer (HBSS supplemented with 1% FBS and 0.1% sodium azide) to remove any unbound β-glucan, stained with a neo-epitope specific anti-iC3b Ab and PE-conjugated goat anti-mouse IgG and subsequently analyzed by flow cytometry.
Table 1 below lists the fold change of mean fluorescence intensity (MFI) values of iC3b staining on neutrophils treated with each of the parent or derivatized glucans over that of PBS control-treated cells.
A general note: In flow cytometry, cells or beads pass a laser one at a time.

Experiment [2] has as its system human neutrophils. In words: β-glucan binding on neutrophils (BfD IV staining, flow cytometry). It counts as cell-based. The following applies: 200 μg/mL hexose concentration, 2 hr, 37° C., 10% serum. The method, then: This ability was evaluated by comparing the levels of neutrophil-bound parent versus the derivatives of β-glucans detected by BfD IV, a monoclonal antibody (MAb) specific for β-1,3/1,6 glucans. […] Table 2 lists the fold change of MFI values of BfD IV staining on neutrophils treated with each of the parent and derivatized glucans over that of PBS control-treated cells.
Enriched neutrophils were resuspended at 1×10^6 cells/mL in RPMI 1640 supplemented with 10% serum. The parent or the derivatized glucans at 200, μg/mL hexose concentration were added to neutrophils and incubated in a 37° C., 5% CO2 humidified incubator for 2 hr. After incubation, cells were washed twice with FACS buffer (HBSS supplemented with 1% FBS and 0.1% sodium azide) to remove any unbound β-glucan, and subsequently treated with Fc block. Post Fc block step, cells were stained with the BfD IV Ab for 30 min at 4° C. and washed twice with cold FACS buffer. Cells were then incubated with FITC-conjugated F(ab′)2 goat anti-mouse IgM for 30 min at 4° C. and washed once with cold FACS buffer before fixing with 1% paraformaldehyde. Events were collected on a LSRII flow cytometer and analysis was performed using FlowJo software.
Table 2 summarizes the fold change of MFI values of BfD IV staining on neutrophils treated with each of the parent, or derivatized β-glucans, over that of PBS control-treated cells.

Take “3-Aminopropyl Imidazole MMW Yeast Glucan Analog [BT-1304]”: in experiment [1], the “Approximate Fold Increase/Decrease in MFI over Parent Compound (iC3b)” value (from here on “Approximate Fold Increase/Decrease … (iC3b)”) amounted to 0.6 fold and the “MFI(ic3b) compound/MFI(ic3b) PBS” value worked out at 1.2. Moreover, in experiment [2], the “Approximate Fold Increase/Decrease in MFI over Parent Compound (BfD IV)” value (from here on “Approximate Fold Increase/Decrease … (BfD IV)”) stood at 0.5 fold and the “MFI(BID IV) compound/MFI(BID IV) PBS” value is listed as 2.1.

For “Benzyl Amine LMW Yeast Glucan Analog [BT-1273]”, in experiment [1], the “Approximate Fold Increase/Decrease … (iC3b)” value is on record as 2.2 fold and the “MFI(ic3b) compound/MFI(ic3b) PBS” value came out at 2.4. In experiment [2], the “Approximate Fold Increase/Decrease … (BfD IV)” value stood at 11.3 fold and the “MFI(BID IV) compound/MFI(BID IV) PBS” value came out at 17.0.

Benzyl Amine Laminarin Analog [BT-1234]: in experiment [1], the “Approximate Fold Increase/Decrease … (iC3b)” value is recorded as 3.9 fold and the “MFI(ic3b) compound/MFI(ic3b) PBS” value is reported as 5.1. Further, in experiment [2], the “Approximate Fold Increase/Decrease … (BfD IV)” value worked out at 70.0 fold and the “MFI(BID IV) compound/MFI(BID IV) PBS” value is 77.

As for “Benzyl Amine Reducing End MMW Yeast Glucan Analog [BT-1275]”, in experiment [1], the “Approximate Fold Increase/Decrease … (iC3b)” value stood at 0.9 fold and the “MFI(ic3b) compound/MFI(ic3b) PBS” value is 1.7 ± 0.1. Moreover, in experiment [2], the “Approximate Fold Increase/Decrease … (BfD IV)” value is 0.6 fold and the “MFI(BID IV) compound/MFI(BID IV) PBS” value is 2.4 ± 1.2.

Turning to “Benzyl Amine Scleroglucan Analog [BT-1272]”, in experiment [1], the “Approximate Fold Increase/Decrease … (iC3b)” value came to 2.4 fold and the “MFI(ic3b) compound/MFI(ic3b) PBS” value is given as 3.9. In addition, in experiment [2], the “Approximate Fold Increase/Decrease … (BfD IV)” value is 1.7 fold and the “MFI(BID IV) compound/MFI(BID IV) PBS” value amounted to 3.2.

For “Dextran [Dextran (control), reference compound]”, the “MFI(ic3b) compound/MFI(ic3b) PBS” value in experiment [1] was determined as 1.1 ± 0.2. Also, the “MFI(BID IV) compound/MFI(BID IV) PBS” value in experiment [2] is reported as 1.0.

On to “Galactose Propyl Amine Dextran Analog [BT-1286]”, for which, in experiment [1], the “Approximate Fold Increase/Decrease … (iC3b)” value is 0.9 fold and the “MFI(ic3b) compound/MFI(ic3b) PBS” value was 1.0. Further, in experiment [2], the “Approximate Fold Increase/Decrease … (BfD IV)” value came out at 1.0 fold and the “MFI(BID IV) compound/MFI(BID IV) PBS” value is given as 1.0.

In the case of “Galactose Propyl Amine LMW Yeast Glucan Analog [BT-1277]”, in experiment [1], the “Approximate Fold Increase/Decrease … (iC3b)” value turned out to be 0.9 fold and the “MFI(ic3b) compound/MFI(ic3b) PBS” value is 1.0. In experiment [2], the “Approximate Fold Increase/Decrease … (BfD IV)” value is recorded as 0.9 fold and the “MFI(BID IV) compound/MFI(BID IV) PBS” value was 1.3.

As to “Galactose Propyl Amine MMW Yeast Glucan Analog [BT-1245]”, in experiment [1], the “Approximate Fold Increase/Decrease … (iC3b)” value came to 2.3 fold and the “MFI(ic3b) compound/MFI(ic3b) PBS” value is listed as 4.5 ± 1.2. In experiment [2], the “Approximate Fold Increase/Decrease … (BfD IV)” value is 1.6 fold and the “MFI(BID IV) compound/MFI(BID IV) PBS” value is given as 6.6 ± 3.78.

For the substance “Lactose Propyl Amine MMW Yeast Glucan Analog [BT-1244]”, in experiment [1], the “Approximate Fold Increase/Decrease … (iC3b)” value is reported as 1.5 fold and the “MFI(ic3b) compound/MFI(ic3b) PBS” value stood at 3.0 ± 0.1. Besides, in experiment [2], the “Approximate Fold Increase/Decrease … (BfD IV)” value is listed as 1.0 fold and the “MFI(BID IV) compound/MFI(BID IV) PBS” value amounted to 4.0 ± 1.9.

For the substance “Laminarin [Laminarin (parent), reference compound]”, the “MFI(ic3b) compound/MFI(ic3b) PBS” value in experiment [1] amounted to 1.3. The “MFI(BID IV) compound/MFI(BID IV) PBS” value in experiment [2] came to 1.1.

With “Maltose Propyl Amine MMW Yeast Glucan Analog [BT-1248]”, in experiment [1], the “Approximate Fold Increase/Decrease … (iC3b)” value stood at 1.8 fold and the “MFI(ic3b) compound/MFI(ic3b) PBS” value is 3.5 ± 0.4. In experiment [2], the “Approximate Fold Increase/Decrease … (BfD IV)” value was 1.1 fold and the “MFI(BID IV) compound/MFI(BID IV) PBS” value is given as 4.7 ± 3.8.

As to “Mannose Propyl Amine Dextran Analog [BT-1287]”, in experiment [1], the “Approximate Fold Increase/Decrease … (iC3b)” value is listed as 0.9 fold and the “MFI(ic3b) compound/MFI(ic3b) PBS” value was determined as 1.0. Besides, in experiment [2], the “Approximate Fold Increase/Decrease … (BfD IV)” value stood at 1.0 fold and the “MFI(BID IV) compound/MFI(BID IV) PBS” value is 1.0.

In the case of “Mannose Propyl Amine LMW Yeast Glucan Analog [BT-1278]”, in experiment [1], the “Approximate Fold Increase/Decrease … (iC3b)” value is 0.9 fold and the “MFI(ic3b) compound/MFI(ic3b) PBS” value is given as 1.0. Further, in experiment [2], the “Approximate Fold Increase/Decrease … (BfD IV)” value was determined as 0.9 fold and the “MFI(BID IV) compound/MFI(BID IV) PBS” value amounted to 1.3.

Regarding “Mannose Propyl Amine Laminarin Analog [BT-1281]”, in experiment [1], the “Approximate Fold Increase/Decrease … (iC3b)” value is on record as 0.8 fold and the “MFI(ic3b) compound/MFI(ic3b) PBS” value is recorded as 1.1. Besides, in experiment [2], the “Approximate Fold Increase/Decrease … (BfD IV)” value is on record as 1.1 fold and the “MFI(BID IV) compound/MFI(BID IV) PBS” value came out at 1.2.

On to “Mannose Propyl Amine MMW Yeast Glucan Analog [BT-1243]”, for which, in experiment [1], the “Approximate Fold Increase/Decrease … (iC3b)” value is 4.3 fold and the “MFI(ic3b) compound/MFI(ic3b) PBS” value is on record as 8.6 ± 0.3. In experiment [2], the “Approximate Fold Increase/Decrease … (BfD IV)” value is recorded as 4.7 fold and the “MFI(BID IV) compound/MFI(BID IV) PBS” value came to 19.7 ± 13.4.

For the substance “Mannose Propyl Amine Scleroglucan Analog [BT-1290]”, in experiment [1], the “Approximate Fold Increase/Decrease … (iC3b)” value worked out at 0.7 fold and the “MFI(ic3b) compound/MFI(ic3b) PBS” value came out at 1.1. Besides, in experiment [2], the “Approximate Fold Increase/Decrease … (BfD IV)” value came to 0.7 fold and the “MFI(BID IV) compound/MFI(BID IV) PBS” value turned out to be 1.4.

On to Propyl Amine Dextran Analog [BT-1266], for which, in experiment [1], the “Approximate Fold Increase/Decrease … (iC3b)” value was found to be 0.9 fold and the “MFI(ic3b) compound/MFI(ic3b) PBS” value worked out at 1.0. Moreover, in experiment [2], the “Approximate Fold Increase/Decrease … (BfD IV)” value stood at 1.1 fold and the “MFI(BID IV) compound/MFI(BID IV) PBS” value is 1.1.

On to “Propyl Amine LMW Yeast Glucan Analog [BT-1276]”, for which, in experiment [1], the “Approximate Fold Increase/Decrease … (iC3b)” value was determined as 1.1 fold and the “MFI(ic3b) compound/MFI(ic3b) PBS” value is on record as 1.2 ± 0.1. Further, in experiment [2], the “Approximate Fold Increase/Decrease … (BfD IV)” value was 1.0 fold and the “MFI(BID IV) compound/MFI(BID IV) PBS” value was found to be 1.5 ± 0.1.

For “Propyl Amine MMW Yeast Glucan Analog [BT-1267]”, in experiment [1], the “Approximate Fold Increase/Decrease … (iC3b)” value came out at 4.0 fold and the “MFI(ic3b) compound/MFI(ic3b) PBS” value was 8.0 ± 3.9. Besides, in experiment [2], the “Approximate Fold Increase/Decrease … (BfD IV)” value turned out to be 5.6 fold and the “MFI(BID IV) compound/MFI(BID IV) PBS” value is on record as 23.6 ± 16.4.

On to “S-(+)-2-Phenyl Glycinol MMW Yeast Glucan Analog [BT-1300]”, for which, in experiment [1], the “Approximate Fold Increase/Decrease … (iC3b)” value is on record as 0.8 fold and the “MFI(ic3b) compound/MFI(ic3b) PBS” value turned out to be 1.6. For the same substance, in experiment [2], the “Approximate Fold Increase/Decrease … (BfD IV)” value amounted to 0.6 fold and the “MFI(BID IV) compound/MFI(BID IV) PBS” value is 2.5.

Turning to “Scleroglucan [Scleroglucan (parent), reference compound]”, the “MFI(ic3b) compound/MFI(ic3b) PBS” value in experiment [1] is 1.6. For the same substance, the “MFI(BID IV) compound/MFI(BID IV) PBS” value in experiment [2] was 1.9.

As to “Tryptophan MMW Yeast Glucan Analog [BT-1220]”, in experiment [1], the “Approximate Fold Increase/Decrease … (iC3b)” value stood at 5.1 fold and the “MFI(ic3b) compound/MFI(ic3b) PBS” value turned out to be 10.1. Further, in experiment [2], the “Approximate Fold Increase/Decrease … (BfD IV)” value amounted to 4.8 fold and the “MFI(BID IV) compound/MFI(BID IV) PBS” value stood at 20.3.

Turning to “Tyrosine MMW Yeast Glucan Analog [BT-1297]”, in experiment [1], the “Approximate Fold Increase/Decrease … (iC3b)” value amounted to 1.2 fold and the “MFI(ic3b) compound/MFI(ic3b) PBS” value was found to be 2.3. Besides, in experiment [2], the “Approximate Fold Increase/Decrease … (BfD IV)” value is recorded as 0.5 fold and the “MFI(BID IV) compound/MFI(BID IV) PBS” value was determined as 2.2.
